One data set has as its system SCC-9 cells (OSCC cells). Nature of the data set: MTT cell viability assay, SCC-9. In kind it is cell-based, human. Particulars: for SI (SCC-9): IC50 normal oral fibroblast / IC50 SCC-9. As for the experimental part: (§1) Human SCC-4, SCC-9, and SCC-25 cells, derived from a human oral tongue SCC (squamous cell carcinoma), were obtained from ATCC (CRL-1624, CRL-1629, and CRL-1628, respectively) and maintained in 1:1 DMEM/F12 (Dulbecco’s modified Eagle’s medium and Ham’s F12 medium; Gibco (Thermo Fisher, Waltham, MA, USA)) supplemented with 10% (v/v) FBS (fetal bovine serum; Invitrogen, Thermo Fisher, Waltham, MA, USA) and 400 ng/mL hydrocortisone (Sigma-Aldrich Corporation, St. Louis, MO, USA). B16-F10 (melanoma; CRL-6475), HCT-116 (colorectal cancer; CCL-247), and HepG2 (liver cancer; HB-8065), in addition to primary normal human gingival fibroblasts obtained from ATCC (PCS-201-018), were maintained in DMEM supplemented with 10% (v/v) of FBS and were used in a maximum of six passages. Cells were grown in a humidified environment containing 5% CO2 at 37 °C. For all biological assays, compounds and shikonin were solubilized in 100% DMSO (all Sigma-Aldrich Corp.) to a final concentration of 10 mM and lapachol in ethanol. The carboplatin control was prepared in water (Fauldcarbo; Libbs Farmacêutica, São Paulo, SP, Brazil) and was used as a standard anticancer compound.
(§2) The viability of OSCC cell lines and primary human fibroblast cells was assessed using the MTT assay as in ref . Briefly, cells were grown in triplicate in 96-well plates (5 × 10^3 cells/well) until confluence. Then, the medium was removed, fresh medium was added, and the cells were returned to the incubator in the presence of different compounds. DMSO at the same concentration was used as a control for 100% cell viability. After 72 h, cells were incubated with 0.5 mg/mL of MTT reagent (3-(4,5-dimethyl-2-thiazolyl)-2,5-diphenyl-2-H-tetrazolium bromide) (Sigma-Aldrich Corporation, Louis, MO, USA) for 3.5 h. Then, the wells containing the cells were washed with PBS heated to 37 °C, the formazan crystals were dissolved in a solvent solution (DMSO/methanol 1:1 v/v), and the absorbance was read at 560 nm using an EPOCH microplate spectrophotometer (BioTek Instruments, Winooski, VT, USA) with the background absorbance at 670 nm subtracted. Control chemotherapeutics (carboplatin and shikonin) were used.
(§3) Data are presented as means ± SD. IC50 values for the MTT assays were obtained by nonlinear regression using the […] 8.4.3.0 program (Intuitive Software for Science, San Diego, CA, USA) from at least three independent experiments. A dose–response curve (inhibitor) vs response using the least-squares method was used to determine the IC50, SD, and R2 of the data. The selectivity index was calculated as SI = IC50 of the compound in normal oral fibroblast cells/IC50 of the same compound for each oral cancer cell line (SCC-4, SCC-9, and SCC-25) and averaged when indicated.
On the technique in general: Tetrazolium assays rely on reduction of a dye to a coloured formazan, in cell work by metabolically active cells.

The test system of data set [1] is primary normal human gingival fibroblasts. Briefly: MTT cell viability assay, primary gingival fibroblasts. In kind it is cell-based. Particulars: 72 h, read-out: IC50 primary gingival fibroblast. As for the experimental part: as §1, §2, §3
In the next data set the test system is SCC-25 cells. Briefly: MTT cell viability assay, SCC-25. It is filed as cell-based, human. Particulars: for IC50: read-out: IC50 SCC-25. As for the experimental part: as §1, §2, §3
For a further data set, the system named is SCC-4 cells. Briefly: MTT cell viability assay, SCC-4. Particulars: for IC50: read-out: IC50 SCC-4. It is filed as cell-based, human. As for the experimental part: as §1, §2, §3
Data set [2] has as its system OSCC cell lines (SCC-4, SCC-9, and SCC-25). Nature of the data set: Average selectivity index over three OSCC cell lines (MTT). Particulars: average of SI for SCC-4, SCC-9 and SCC-25 vs normal oral fibroblasts. In kind it is cell-based, human. The protocol: as §1, §2, §3
In data set [3] the test system is HCT-116 (colorectal cancer). Nature of the data set: MTT cytotoxicity/selectivity, HCT-116. It is filed as cell-based. The conditions noted are these: vs normal oral fibroblasts. The protocol: as §1
as §2, with “DMSO at the same concentration was used as a control for 100% cell viability. After 72 h, cells were incubated with 0.5 mg/mL of MTT reagent (3-(4,5-dimethyl-2-thiazolyl)-2,5-diphenyl-2-H-tetrazolium bromide) (Sigma-Aldrich Corporation, Louis, MO, USA) for 3.5 h.” left out, “Control chemotherapeutics (carboplatin and shikonin) were used.” left out
(§4) Data are presented as means ± SD. […] The selectivity index was calculated as SI = IC50 of the compound in normal oral fibroblast cells/IC50 of the same compound for each oral cancer cell line (SCC-4, SCC-9, and SCC-25) and averaged when indicated.

A further data set deals with HepG2 (liver cancer). Nature of the data set: MTT cytotoxicity/selectivity, HepG2. In kind it is cell-based. The conditions noted are these: vs normal oral fibroblasts. As for the experimental part: as §1
as §2, with “DMSO at the same concentration was used as a control for 100% cell viability. After 72 h, cells were incubated with 0.5 mg/mL of MTT reagent (3-(4,5-dimethyl-2-thiazolyl)-2,5-diphenyl-2-H-tetrazolium bromide) (Sigma-Aldrich Corporation, Louis, MO, USA) for 3.5 h.” left out, “Control chemotherapeutics (carboplatin and shikonin) were used.” left out
as §4

A further data set has as its system B16-F10 (melanoma). Nature of the data set: MTT cytotoxicity/selectivity, B16-F10. The conditions noted are these: vs normal oral fibroblasts. In kind it is cell-based. As for the experimental part: as §1
as §2, with “DMSO at the same concentration was used as a control for 100% cell viability. After 72 h, cells were incubated with 0.5 mg/mL of MTT reagent (3-(4,5-dimethyl-2-thiazolyl)-2,5-diphenyl-2-H-tetrazolium bromide) (Sigma-Aldrich Corporation, Louis, MO, USA) for 3.5 h.” left out, “Control chemotherapeutics (carboplatin and shikonin) were used.” left out
as §4

The subject of another data set is human erythrocytes. Briefly: Hemolysis assay. Particulars: 500 μM; Triton X-100 positive control. It is filed as cell-based. As for the experimental part: To determine the surfactant power of the substances present in biological membranes, a hemolysis test was carried out with human blood approved by the Research Ethics Committee of the Universidade Federal Fluminense (CAAE: 43134721.4.0000.5626). Erythrocytes were collected for centrifugation at 1500 rpm for 15 min, washed with PBS (phosphate-buffered saline) supplemented with 10 mM glucose, and counted in an automatic cell counter (Thermo Fisher, Waltham, MA, USA). […] In total, 10 μL of PBS was used as a negative control, and 10 μL of PBS with 0.1% Triton x 100 was used as a positive control. Data reading was performed with EPOCH (BioTek Instruments, Winooski, VT, USA) at an absorbance of 540 nm, and statistical data were generated using […] Prism 8.4.3.0 program (Intuitive Software for Science, San Diego, CA, USA).

Data set [4] concerns esophageal squamous carcinoma cells. Also on record: method as in PMID 31225674. Particulars: inhibits RSK2 and induces intrinsic apoptosis in esophageal squamous carcinoma cells; cited from earlier work.
Setting [5] is: Homo sapiens, SCC-9, 72 h, MTT, read-out: IC50 SCC-9 oral cancer.

These results are taken from paper PMC12444508, “Mechanistic Insights into the Anticancer Action of Novel 2‑Hydroxy-1,4-naphthoquinone Thiol Derivatives” (ACS Omega, 2025).

Values joined by “and” are separate entries in the source; they are usually repeats but may differ in a detail not shown here. Identical values can stand only once. Like-named read-outs stand apart in the source and are kept apart here.

`Cc1ccccc1SC1C2=C(OC(C)(C)C1Sc1ccccc1C)C(=O)c1ccccc1C2=O` (centres unmarked) [7b, 2,2-Dimethyl-3,4-bis(o-tolylthio)-3,4-dihydro-2H-benzo[g]chromene-5,10-dione]: the IC50 (usually the point on the concentration scale where inhibition reaches its midpoint) in the data set on SCC-9 cells (OSCC cells) (setting [5]) is 34.8 µM; in data set [1] (Homo sapiens, Fibroblast, MTT), 50.9 µM. Besides, the “SI (SCC-9)” value in the data set with SCC-9 cells (OSCC cells) was 1.5.

For the molecule `Cc1cccc(SC2C3=C(OC(C)(C)C2Sc2cccc(C)c2)C(=O)c2ccccc2C3=O)c1` (centres unmarked) [7c, 2,2-Dimethyl-3,4-bis(m-tolylthio)-3,4-dihydro-2H-benzo[g]chromene-5,10-dione], the IC50 with SCC-9 cells (OSCC cells) (setting [5]) was determined as 15.3 µM; in data set [1] (Homo sapiens, Fibroblast, MTT), 40.8 µM; with SCC-25 cells (Homo sapiens, SCC-25, 72 h, MTT), 31.8 µM; with SCC-4 cells (Homo sapiens, SCC-4, 72 h, MTT), 30.2 µM. Besides, in the data set on SCC-9 cells (OSCC cells), the “SI (SCC-9)” value is 2.7. Moreover, the “average SI” value in [2] is given as 1.8.

As for `Cc1ccc(SC2C3=C(OC(C)(C)C2Sc2ccc(C)cc2)C(=O)c2ccccc2C3=O)cc1` (centres unmarked) [7d, 2,2-Dimethyl-3,4-bis(p-tolylthio)-3,4-dihydro-2H-benzo[g]chromene-5,10-dione], the IC50 was 30.9 µM in the data set on SCC-9 cells (OSCC cells) (setting [5]) and 60.1 µM in data set [1] (Homo sapiens, Fibroblast, MTT). For the same molecule, the “SI (SCC-9)” value with SCC-9 cells (OSCC cells) came out at 1.9.

On to `CC1(C)OC2=C(C(=O)c3ccccc3C2=O)C(Sc2ccc(F)cc2)C1Sc1ccc(F)cc1` (centres unmarked) [7f, 3,4-Bis((4-fluorophenyl)thio)-2,2-dimethyl-3,4-dihydro-2H-benzo[g]chromene-5,10-dione], for which the 50% inhibitory concentration (IC50) in the data set with SCC-9 cells (OSCC cells) (setting [5]) came out at 35.3 µM; in data set [1] (Homo sapiens, Fibroblast, MTT), 40 µM. The “SI (SCC-9)” value with SCC-9 cells (OSCC cells) came to 1.1.

Take `CC1(C)OC2=C(C(=O)c3ccccc3C2=O)C(Sc2ccc(Cl)cc2)C1Sc1ccc(Cl)cc1` (centres unmarked) [7h, 3,4-Bis((4-chlorophenyl)thio)-2,2-dimethyl-3,4-dihydro-2H-benzo[g]chromene-5,10-dione]: the IC50 with SCC-9 cells (OSCC cells) (setting [5]) is 33.3 µM; in data set [1] (Homo sapiens, Fibroblast, MTT), 43 µM. In addition, the “SI (SCC-9)” value in the data set on SCC-9 cells (OSCC cells) came out at 1.3.

In the case of `CC1(C)OC2=C(C(=O)c3ccccc3C2=O)C(Sc2ccc(O)cc2)C1Sc1ccc(O)cc1` (centres unmarked) [7i, 3,4-Bis((4-hydroxyphenyl)thio)-2,2-dimethyl-3,4-dihydro-2H-benzo[g]chromene-5,10-dione], the half-inhibitory concentration (IC50) was 17.2 µM with SCC-9 cells (OSCC cells) (setting [5]) and 32.6 µM in data set [1] (Homo sapiens, Fibroblast, MTT). In addition, the “SI (SCC-9)” value in the data set on SCC-9 cells (OSCC cells) is 1.9.

On to `N.N.O=C([O-])C1(C(=O)[O-])CCC1.[Pt+2]` [Carboplatin, carboplatin, reference compound], for which the concentration for half-maximal inhibition (IC50) with SCC-9 cells (OSCC cells) (72 h, MTT, read-out: IC50 SCC-9 oral cancer) was 49.8 µM; in data set [1] (MTT), 128 µM; with SCC-25 cells (72 h, MTT) it was 38.3 µM; in the data set on SCC-4 cells (72 h, MTT), 27.7 µM. Moreover, the “SI (SCC-9)” value with SCC-9 cells (OSCC cells) is 2.6. In addition, in the data set with SCC-25 cells (vs normal oral fibroblasts), the “selective index (SI) SCC-25” value stood at 3.3. Further, the “selective index (SI) SCC-4” value in the data set with SCC-4 cells (vs normal oral fibroblasts) is recorded as 4.6. Further, in data set [2], the “average SI” value came to 3.5. Besides, the “selective index (SI) HCT-116 colon cancer” value in data set [3] stood at 2.5. The “selective index (SI) HepG2 hepatocellular carcinoma” value with HepG2 (liver cancer) stood at 7.1. The “selective index (SI) B16-F10 melanoma” value in the data set with B16-F10 (melanoma) is recorded as 5.5. Also, in the data set on human erythrocytes, the “% Hemolysis (Mean ± SD)” value is reported as 1.34 ± 0.10%.

As for `CC(C)=CC[C@@H](O)C1=CC(=O)c2c(O)ccc(O)c2C1=O` [Shikonin, shikonin, reference compound], the IC50 in the data set with SCC-9 cells (OSCC cells) (Homo sapiens, SCC-9, 72 h, read-out: IC50 SCC-9 oral cancer, 72 h, MTT) turned out to be 2.1 µM; in [1] (Homo sapiens, Fibroblast), 2.2 µM; with SCC-25 cells (Homo sapiens, SCC-25, 72 h), 0.6 µM; in the data set on SCC-4 cells (Homo sapiens, SCC-4, 72 h), 1.6 µM. The “SI (SCC-9)” value with SCC-9 cells (OSCC cells) amounted to 1.0. Besides, the “average SI” value in data set [2] is 2.0.

`CC(C)=CCC1=C(O)C(=O)c2ccccc2C1=O` [lapachol]: in data set [4], the IC50 is 2 µM.

For the molecule Triton X-100, the “% Hemolysis (Mean ± SD)” value in the data set with human erythrocytes is 100% and 99.6 ± 2.51%.
